Assay results taken from the NIST ThermoML archive (doi:10.1016/j.tca.2016.07.019).

Assay: wn = mass fraction of the nth substance listed
Conditions: 100 kPa, Liquid

O=C([O-])[C@@H]1CCCN1.[K+] [potassium L-prolinate] + O
mass density [kg/m3]
Conditions	293.15 K	303.15 K	313.15 K	323.15 K
w1 = 0.01	1007.1	1004.3	1001.6	997.9
w1 = 0.04	1023.4	1019.6	1016.1	1009.5
w1 = 0.1	1047.2	1042.8	1037.9	1026.7
